From ChEMBL document CHEMBL1152554, “Synthesis and pharmacological evaluation of 6-naltrexamine analogs for alcohol cessation” (Bioorg Med Chem, 2009) come the findings set out here.

Calls of active or inactive are those of the source.

In general, EC50 refers to the concentration giving half of the maximal effect. The low end stands for higher potency in that assay, the high end for lower potency in that assay. As a reminder, the half-life is the time needed for the level to fall by half in the phase considered. By Ki is commonly meant a dissociation constant, usually derived from enzyme kinetics or from competition with a known ligand. A lower Ki goes with higher affinity. Usually Emax stands for the maximal effect, on the per cent scale that the assay sets.

The subject of one series is Liver microsomes. To be noted: human.
For series [1] the following is noted: mouse, microsomes.
The target of series [2] is T1, Nociceptin receptor (Homo sapiens, UniProt P41146). As to the kind of experiment: biochemical.
A short description of another series: in vitro. The conditions noted are these: mouse, liver microsomes. Background: Microsomes from liver hold many membrane-bound enzymes, among them those of drug oxidation.
Series [3] has as its target T1, Nociceptin receptor. The series can be described thus: biochemical. The source holds these as a separate data set.
Another series deals with Rattus norvegicus. The series can be described thus: Inhibition of saccharin intake in sc dosed Wistar rat by saccharin-self administration test. The format is functional, organism-based.
For series [4], the target named is T1, Nociceptin receptor. As to the kind of experiment: Activity at NOP expressed in HEK293 cells assessed as stimulation of [35S]GTPgammaS binding relative to basal level. Format: functional, cell-based. In general terms: Binding of GTPγS marks nucleotide exchange on a G protein.
The target in series [5] is T1, Nociceptin receptor. The series can be described thus: biochemical. This is another data set of the same source.
A short description of series [6]: Ratio of drug level in brain to plasma in Wistar rat at 400 ug/kg, po after […]. To be noted: 0.4 mg/kg, read-out: BPR. Format: ADME, organism-based.

T1 sequence (P41146 whole entry): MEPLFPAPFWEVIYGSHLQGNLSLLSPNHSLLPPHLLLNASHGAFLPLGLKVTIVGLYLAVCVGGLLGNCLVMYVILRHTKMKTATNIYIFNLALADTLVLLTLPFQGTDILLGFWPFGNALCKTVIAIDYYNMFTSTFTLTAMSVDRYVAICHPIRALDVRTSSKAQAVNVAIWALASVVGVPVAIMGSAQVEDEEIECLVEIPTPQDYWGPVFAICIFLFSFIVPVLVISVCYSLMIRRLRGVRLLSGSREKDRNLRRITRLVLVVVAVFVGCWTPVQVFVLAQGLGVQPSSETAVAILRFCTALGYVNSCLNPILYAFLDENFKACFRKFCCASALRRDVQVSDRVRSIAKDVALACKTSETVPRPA

With `O=C(N[C@@H]1CC[C@@]2(O)[C@H]3Cc4ccc(O)c5c4[C@@]2(CCN3CC2CC2)[C@H]1O5)c1ccc(C(F)(F)F)cc1.O=C(O)C(=O)O`, the Stability result (in the series on Liver microsomes; in series [1]) was “Stable” throughout. As to `O=C(N[C@@H]1CC[C@@]2(O)[C@H]3Cc4ccc(O)c5c4[C@@]2(CCN3CC2CC2)[C@H]1O5)c1ccc(Cl)cc1`, the EC50 at Nociceptin receptor [2] was greater than 10 µM. For `Cc1ccc(C(=O)N[C@@H]2CC[C@@]3(O)[C@H]4Cc5ccc(O)c6c5[C@@]3(CCN4CC3CC3)[C@H]2O6)cc1.O=C(O)C(=O)O`, the Stability result (in the series on Liver microsomes; in [1]) was “Stable” in each case.

Consider `CC(C)(C)c1ccc(C(=O)N[C@@H]2CC[C@@]3(O)[C@H]4Cc5ccc(O)c6c5[C@@]3(CCN4CC3CC3)[C@H]2O6)cc1.O=C(O)C(=O)O`, for which the Stability result in series [1] is given as “Stable”. Compound `C=C1CC[C@@]2(O)[C@H]3Cc4ccc(O)c5c4[C@@]2(CCN3CC2CC2)[C@H]1O5` returned a half-life in “in vitro” of 20 min. On to `O=C(N[C@@H]1CC[C@@]2(O)[C@H]3Cc4ccc(O)c5c4[C@@]2(CCN3CC2CC2)[C@H]1O5)c1ccc(Br)cc1.O=C(O)C(=O)O`, for which the Stability result with Liver microsomes is listed as “Stable”. Also, the Ki on Nociceptin receptor [3] is greater than 10 µM. Also, the inhibition entry with Rattus norvegicus is “Active”. Also, the EC50 at Nociceptin receptor [2] was greater than 10 µM. Regarding `Oc1ccc2c3c1O[C@H]1c4[nH]c5ccccc5c4C[C@@]4(O)[C@@H](C2)N(CC2CC2)CC[C@]314`, at Nociceptin receptor [4], the Emax came to 109%. As for `O=C(N[C@@H]1CC[C@@]2(O)[C@H]3Cc4ccc(O)c5c4[C@@]2(CCN3CC2CC2)[C@H]1O5)c1ccc(Cl)c(Cl)c1.O=C(O)C(=O)O`, the EC50 was 0.0001 µM at Nociceptin receptor [5] and greater than 10 µM at Nociceptin receptor [2]. Besides, the Stability result in [1] is “Stable”. In the case of `O=C(O)C(=O)O.O=[14C](N[C@@H]1CC[C@@]2(O)[C@H]3Cc4ccc(O)c5c4[C@@]2(CCN3CC2CC2)[C@H]1O5)c1ccc(Br)cc1`, the Kp at […] in series [6] worked out at 2.3.
